Source: patent publication US9597310B2, “Indanyloxydihydrobenzofuranylacetic acids” (Boehringer Ingelheim International GmbH, priority 2012, dated 2017)

Each molecule was assayed against human GPR40 receptor (Homo sapiens (Human), UniProt O14842) (assay: IP1 accumulation measurements using the IPOne assay system). Conditions: 1321N1 cells stably expressing human GPR40 receptor, 1 h stimulation.
Type: cell-based
Method: IP1 accumulation measurements using the IPOne assay system—1321N1 cells stably expressing human GPR40 receptor (Euroscreen, Belgium) are seeded 24 h before the assay in white 384-well plates in culture medium containing 10% FCS, 1% Na-Pyruvate and 400 μg/mL G418. IP1 is assayed according to the manufacturer's description (Cisbio Bioassays, France). In brief, the assay is started by substitution of the culture medium by stimulation buffer (Hepes 10 mM, CaCl2 1 mM, MgCl2 0.5 mM, KCl 4.2 mM, NaCl 146 mM, glucose 5.5 mM and LiCl 50 mM, pH 7.4). Cells are stimulated for 1 h at 37° C., 5% CO2 by addition of the compounds that are diluted in stimulation buffer containing LiCl. Assays are stopped by adding HTRF-conjugates (IP1-d2 and Anti-IP1 cryptate Tb) and lysis buffer, provided by the manufacturer. After an incubation time of 1 h at room temperature plates are measured using an EnVision™, Perkin Elmer. The obtained fluorescence ratios at 665/615 […] are then used to calculate the pEC50 values using Assay Explorer 3.3 Software (Accelrys, Inc.) by interpolation using an IP1 reference curve and subsequent sigmoidal curve fitting allowing for a variable hill slope.

human GPR40 receptor, sequence (O14842 whole entry): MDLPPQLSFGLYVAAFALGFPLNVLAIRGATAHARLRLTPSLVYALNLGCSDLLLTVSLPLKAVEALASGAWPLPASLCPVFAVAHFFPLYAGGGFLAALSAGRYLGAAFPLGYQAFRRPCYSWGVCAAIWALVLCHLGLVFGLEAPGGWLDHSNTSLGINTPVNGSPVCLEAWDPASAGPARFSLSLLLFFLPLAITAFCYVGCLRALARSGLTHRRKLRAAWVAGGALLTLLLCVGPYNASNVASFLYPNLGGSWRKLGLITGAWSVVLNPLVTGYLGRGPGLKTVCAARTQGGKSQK

Point of comparison: CC(C)(O)CCCc1ccc(Oc2ccc(F)c3c2CC[C@H]3Oc2ccc3c(c2)OC[C@H]3CC(=O)O)cc1 [Example 28, ((S)-6-{(R)-7-Fluoro-4-[4-(4-hydroxy-4-methylpentyl)phenoxy]-indan-1-yloxy}-2,3-dihydrobenzofuran-3-yl)-acetic acid], EC50 20 nM. Against it:
- CS(=O)(=O)CCCOc1cc(F)c(Oc2ccc(F)c3c2CC[C@H]3Oc2ccc3c(c2)OC[C@H]3CC(=O)O)cc1F [Example 39, [(S)-6-((R)-4-{2,5-Difluoro-4-[3-(methylsulfonyl)propoxy]phenoxy}-7-fluoro-indan-1-yloxy)-2,3-dihydrobenzofuran-3-yl]-acetic acid] — within 1.5-fold, 23 nM
- O=C(O)C[C@@H]1COc2cc(O[C@@H]3CCc4c(Oc5ccc6c(c5)NC(=O)CC6)ccc(F)c43)ccc21 [Example 24, {(S)-6-[(R)-7-Fluoro-4-(2-oxo-1,2,3,4-tetrahydroquinoline-7-yloxy)-indan-1-yloxy]-2,3-dihydrobenzofuran-3-yl}-acetic acid] — 2-fold lower, 10 nM
- O=C(O)C[C@@H]1COc2cc(O[C@@H]3CCc4c(Oc5ccc6c(c5)OCCO6)ccc(F)c43)ccc21 [Example 26, {(S)-6-[(R)-4-(2,3-Dihydrobenzo[b][1,4]dioxin-6-yloxy)-7-fluoro-indan-1-yloxy]-2,3-dihydrobenzofuran-3-yl}-acetic acid] — 3.3-fold lower, 6 nM
- Cn1nccc1-c1ccc(Oc2ccc(F)c3c2CC[C@H]3Oc2ccc3c(c2)OC[C@H]3CC(=O)O)c(F)c1 [Example 55, ((S)-6-{(R)-7-Fluoro-4-[2-fluoro-4-(1-methyl-1H-pyrazol-5-yl)phenoxy]-indan-1-yloxy}-2,3-dihydrobenzofuran-3-yl)-acetic acid] — 3.3-fold lower, 6 nM
- O=C(O)C[C@@H]1COc2cc(O[C@@H]3CCc4c(Oc5ccc(CC6CCOCC6)cc5)ccc(F)c43)ccc21 [Example 35, [(S)-6-((R)-7-Fluoro-4-{4-[(tetrahydro-2H-pyran-4-yl)methyl]phenoxy}-indan-1-yloxy)-2,3-dihydrobenzofuran-3-yl]-acetic acid] — 4-fold lower, 5 nM
- O=C(O)C[C@@H]1COc2cc(O[C@@H]3CCc4c(Oc5ccc(C6CCOCC6)cc5)ccc(F)c43)ccc21 [Example 27, ((S)-6-{(R)-7-Fluoro-4-[4-(tetrahydro-2H-pyran-4-yl)phenoxy]-indan-1-yloxy}-2,3-dihydrobenzofuran-3-yl)-acetic acid] — 2.2-fold lower, 9 nM
- Cc1cc(OCCC(C)(C)O)cc(C)c1Oc1ccc(F)c2c1CC[C@H]2Oc1ccc2c(c1)OC[C@H]2CC(=O)O [Example 40, ((S)-6-{(R)-7-Fluoro-4-[4-(3-hydroxy-3-methylbutoxy)-2,6-dimethylphenoxy]-indan-1-yloxy}-2,3-dihydrobenzofuran-3-yl)-acetic acid] — 37-fold higher, 733 nM
- CS(=O)(=O)CCCOc1c(F)cc(Oc2ccc(F)c3c2CC[C@H]3Oc2ccc3c(c2)OC[C@H]3CC(=O)O)cc1F [Example 19, [(S)-6-{(R)-4-[3,5-Difluoro-4-(3-methanesulfonyl-propoxy)-phenoxy]-7-fluoro-indan-1-yloxy}-2,3-dihydro-benzofuran-3-yl]-acetic acid] — 1.7-fold lower, 12 nM
- O=C(O)C[C@@H]1COc2cc(O[C@@H]3CCc4c(Oc5ccc(CN6CCCC6)cc5)ccc(F)c43)ccc21 [Example 59, ((S)-6-{(R)-7-Fluoro-4-[4-(pyrrolidin-1-ylmethyl)phenoxy]-indan-1-yloxy}-2,3-dihydrobenzofuran-3-yl)-acetic acid] — 11-fold higher, 216 nM
- O=C(O)C[C@@H]1COc2cc(O[C@@H]3CCc4c(Oc5ccc(CN6CCOCC6)cc5)ccc(F)c43)ccc21 [Example 5, {(S)-6-[(R)-7-Fluoro-4-(4-morpholin-4-ylmethyl-phenoxy)-indan-1-yloxy]-2,3-dihydro-benzofuran-3-yl}-acetic acid] — within 1.5-fold, 25 nM
- Cc1ncc(-c2ccc(Oc3ccc(F)c4c3CC[C@H]4Oc3ccc4c(c3)OC[C@H]4CC(=O)O)cc2)s1 [Example 22, [(S)-6-{(R)-7-Fluoro-4-[4-(2-methyl-thiazol-5-yl)-phenoxy]-indan-1-yloxy}-2,3-dihydro-benzofuran-3-yl]-acetic acid] — 4-fold lower, 5 nM
- Cn1nccc1-c1ccc(Oc2ccc(F)c3c2CC[C@H]3Oc2ccc3c(c2)OC[C@H]3CC(=O)O)c(C#N)c1 [Example 48, ((S)-6-{(R)-4-[2-Cyano-4-(1-methyl-1H-pyrazol-5-yl)phenoxy]-7-fluoro-indan-1-yloxy)-2,3-dihydrobenzofuran-3-yl}-acetic acid] — 2.2-fold lower, 9 nM
- CC(C)(O)CCn1ncc2cc(Oc3ccc(F)c4c3CC[C@H]4Oc3ccc4c(c3)OC[C@H]4CC(=O)O)ccc21 [Example 30, ((S)-6-{(R)-7-Fluoro-4-[1-(3-hydroxy-3-methylbutyl)-1H-indazol-5-yloxy]-indan-1-yloxy}-2,3-dihydrobenzofuran-3-yl)-acetic acid] — 1.5-fold lower, 13 nM
- Cn1ccnc1-c1ccc(Oc2ccc(F)c3c2CC[C@H]3Oc2ccc3c(c2)OC[C@H]3CC(=O)O)cc1 [Example 38, ((S)-6-{(R)-7-Fluoro-4-[4-(1-methyl-1H-imidazol-2-yl)phenoxy]-indan-1-yloxy}-2,3-dihydrobenzofuran-3-yl)-acetic acid] — 2-fold higher, 41 nM
- CC(C)(O)CCCc1ccc(Oc2ccc(F)c3c2CC[C@H]3Oc2ccc3c(c2)OC[C@H]3CC(=O)O)nc1 [Example 23, [(S)-6-{(R)-7-Fluoro-4-[5-(4-hydroxy-4-methyl-pentyl)-pyridin-2-yloxy]-indan-1-yloxy}-2,3-dihydro-benzofuran-3-yl]-acetic acid] — 4.2-fold higher, 84 nM
- O=C(O)C[C@@H]1COc2cc(O[C@@H]3CCc4c(Oc5ccc(-n6ccnc6)cc5)ccc(F)c43)ccc21 [Example 10, {(S)-6-[(R)-7-Fluoro-4-(4-imidazol-1-yl-phenoxy)-indan-1-yloxy]-2,3-dihydro-benzofuran-3-yl}-acetic acid] — 1.8-fold lower, 11 nM
- N#Cc1cc(Oc2ccc(F)c3c2CC[C@H]3Oc2ccc3c(c2)OC[C@H]3CC(=O)O)ccc1O[C@@H]1CCOC1 [Example 43, ((S)-6-{(R)-4-[3-Cyano-4-((R)-tetrahydrofuran-3-yloxy)phenoxy]-7-fluoro-indan-1-yloxy}-2,3-dihydrobenzofuran-3-yl)-acetic acid] — within 1.5-fold, 18 nM
- CC(C)(O)CCOc1cc(F)c(Oc2ccc(F)c3c2CC[C@H]3Oc2ccc3c(c2)OC[C@H]3CC(=O)O)cc1F [Example 34, ((S)-6-{(R)-4-[2,5-Difluoro-4-(3-hydroxy-3-methylbutoxy)phenoxy]-7-fluoro-indan-1-yloxy}-2,3-dihydrobenzofuran-3-yl)-acetic acid] — 3.3-fold lower, 6 nM
- O=C(O)C[C@@H]1COc2cc(O[C@@H]3CCc4c(Oc5ccc(O[C@H]6CCOC6)cn5)ccc(F)c43)ccc21 [Example 18, {(S)-6-[(R)-7-Fluoro-4-{5-[(S)-tetrahydro-furan-3-yloxy}-pyridin-2-yloxy}-indan-1-yloxy]-2,3-dihydro-benzofuran-3-yl}-acetic acid] — 1.6-fold higher, 31 nM
- O=C(O)C[C@@H]1COc2cc(O[C@@H]3CCc4c(Oc5ccc(OCC6(O)CCOCC6)c(F)c5)ccc(F)c43)ccc21 [Example 37, [(S)-6-((R)-7-Fluoro-4-{3-fluoro-4-[(4-hydroxytetrahydro-2H-pyran-4-yl)-methoxy]phenoxy}-indan-1-yloxy)-2,3-dihydrobenzofuran-3-yl]-acetic acid] — 2.5-fold lower, 8 nM
- CC(=O)Nc1ccc(Oc2ccc(F)c3c2CC[C@H]3Oc2ccc3c(c2)OC[C@H]3CC(=O)O)cc1 [Example 8, {(S)-6-[(R)-4-(4-Acetylamino-phenoxy)-7-fluoro-indan-1-yloxy]-2,3-dihydro-benzofuran-3-yl}-acetic acid] — 1.7-fold higher, 34 nM
- Cc1noc(C)c1-c1ccc(Oc2ccc(F)c3c2CC[C@H]3Oc2ccc3c(c2)OC[C@H]3CC(=O)O)c(F)c1 [Example 54, ((S)-6-{(R)-4-[4-(3,5-Dimethylisoxazol-4-yl)-2-fluorophenoxy]-7-fluoro-indan-1-yloxy}-2,3-dihydrobenzofuran-3-yl)-acetic acid] — 2.2-fold lower, 9 nM
- CC(=O)NCc1cccc(Oc2ccc(F)c3c2CC[C@H]3Oc2ccc3c(c2)OC[C@H]3CC(=O)O)c1 [Example 7, [(S)-6-{(R)-4-[3-(Acetylamino-methyl)-phenoxy]-7-fluoro-indan-1-yloxy}-2,3-dihydro-benzofuran-3-yl]-acetic acid] — 2.8-fold higher, 55 nM
- O=C(O)C[C@@H]1COc2cc(O[C@@H]3CCc4c(Oc5ccc(-c6nnn[nH]6)cc5)ccc(F)c43)ccc21 [Example 13, [(S)-6-{(R)-7-Fluoro-4-[4-(1H-tetrazol-5-yl)-phenoxy]-indan-1-yloxy}-2,3-dihydro-benzofuran-3-yl]-acetic acid] — 14-fold higher, 282 nM
- Cc1noc(C)c1-c1ccc(Oc2ccc(F)c3c2CC[C@H]3Oc2ccc3c(c2)OC[C@H]3CC(=O)O)c(C#N)c1 [Example 49, ((S)-6-{(R)-4-[2-Cyano-4-(3,5-dimethylisoxazol-4-yl)phenoxy]-7-fluoro-indan-1-yloxy}-2,3-dihydrobenzofuran-3-yl)-acetic acid] — within 1.5-fold, 17 nM
- CC(C)(O)CCOc1ccc(Oc2ccc(F)c3c2CC[C@H]3Oc2ccc3c(c2)OC[C@H]3CC(=O)O)c(F)c1 [Example 53, ((S)-6-{(R)-7-Fluoro-4-[2-fluoro-4-(3-hydroxy-3-methylbutoxy)phenoxy]-indan-1-yloxy}-2,3-dihydrobenzofuran-3-yl)-acetic acid] — 2.9-fold lower, 7 nM
- CC(C)(O)CCOc1ccc(Oc2ccc(F)c3c2CC[C@H]3Oc2ccc3c(c2)OC[C@H]3CC(=O)O)cc1C#N [Example 44, ((S)-6-{(R)-4-[3-Cyano-4-(3-hydroxy-3-methylbutoxy)phenoxy]-7-fluoro-indan-1-yloxy}-2,3-dihydrobenzofuran-3-yl)-acetic acid] — 2.9-fold lower, 7 nM
